Test results from ChEMBL document CHEMBL1140990, “Evaluation of alpha,beta-unsaturated ketone-based probes for papain-family cysteine proteases” (Bioorg Med Chem, 2009).
Calls of active or inactive are those of the source. No cut-off for these calls is given here.

Tests used:
[1] = target: Cathepsin B (Homo sapiens) (UniProt P07858); assay: Inhibition of human recombinant cathepsin B
[2] = target: Procathepsin L (Homo sapiens) (UniProt P07711); assay: Inhibition of human recombinant cathepsin L
Chain of Procathepsin L (Homo sapiens) (P07711 114-333 limits assumed): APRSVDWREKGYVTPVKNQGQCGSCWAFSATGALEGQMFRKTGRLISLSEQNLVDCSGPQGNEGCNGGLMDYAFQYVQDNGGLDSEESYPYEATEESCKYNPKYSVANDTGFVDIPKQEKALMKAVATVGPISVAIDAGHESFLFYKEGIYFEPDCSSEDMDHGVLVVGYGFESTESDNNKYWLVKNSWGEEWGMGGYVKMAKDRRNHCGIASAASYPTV

[3] = target: Cathepsin B (Mus musculus) (UniProt P10605); assay: Binding affinity to cathepsin B in mouse spleen crude extracts; format: tissue-based
Chain of Cathepsin B (Mus musculus) (P10605 80-333 limits assumed): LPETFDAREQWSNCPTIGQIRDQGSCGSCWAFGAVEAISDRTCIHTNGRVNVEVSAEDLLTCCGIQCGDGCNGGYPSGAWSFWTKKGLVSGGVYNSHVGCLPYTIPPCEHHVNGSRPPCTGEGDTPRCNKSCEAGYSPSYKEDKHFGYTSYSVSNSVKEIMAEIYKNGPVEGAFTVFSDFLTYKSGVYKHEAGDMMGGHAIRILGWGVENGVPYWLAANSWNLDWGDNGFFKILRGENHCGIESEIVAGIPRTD

[4] = target: Cathepsin B (Mus musculus) (UniProt P10605); assay: Binding affinity to cathepsin B in wild type mouse NIH/3T3 cells; format: cell-based; details: NIH3T3
[5] = target: T1, Procathepsin L (Mus musculus) (UniProt P06797); assay: Binding affinity to cathepsin L in wild type mouse NIH/3T3 cells; format: cell-based; details: NIH3T3
T1 sequence (whole entry): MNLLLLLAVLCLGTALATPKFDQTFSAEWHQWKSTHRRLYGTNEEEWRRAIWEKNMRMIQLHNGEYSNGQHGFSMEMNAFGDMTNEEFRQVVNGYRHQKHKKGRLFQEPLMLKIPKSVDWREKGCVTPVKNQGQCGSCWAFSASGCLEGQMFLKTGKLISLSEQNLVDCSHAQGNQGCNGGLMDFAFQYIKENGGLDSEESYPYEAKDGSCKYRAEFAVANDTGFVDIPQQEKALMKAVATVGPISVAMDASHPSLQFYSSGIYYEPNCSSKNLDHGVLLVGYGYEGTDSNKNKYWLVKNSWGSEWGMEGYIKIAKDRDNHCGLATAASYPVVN

[6] = target: Cathepsin B (Mus musculus) (UniProt P10605); assay: Binding affinity to cathepsin B in mouse spleen crude extracts at 500 nM; format: tissue-based
[7] = target: Cathepsin B (Homo sapiens) (UniProt P07858); assay: Binding affinity to cathepsin B in human MDA-MB-231 cell lysates; format: cell-free

| Structure (SMILES) | Activity [1] [M⁻¹ s⁻¹] | Activity [2] [M⁻¹ s⁻¹] | Activity [3] | Activity [4] | Activity [5] | Activity [6] | Activity [7] |
| --- | --- | --- | --- | --- | --- | --- | --- |
| CC(=O)/C=C/[C@H](C)NC(=O)[C@H](Cc1ccccc1)NC(=O)OCc1ccccc1 | 36700 | 1.63e+06 |  |  |  |  |  |
| COc1ccc(-c2ccc3n2[B-](F)(F)[N+]2=C(C)C(CCC(=O)NCCCCCC(=O)N[C@@H](Cc4ccccc4)C(=O)N[C@@H](C)/C=C/C(C)=O)=C(C)C2=C3)cc1 |  |  | Active | Active | Active | Active |  |
| CC(=O)/C=C/[C@H](C)NC(=O)[C@H](Cc1ccccc1)NC(=O)CCOCCOCCOCCOCCNC(=O)CCCC[C@H]1SC[C@H]2NC(=O)N[C@H]21 |  |  |  |  |  | Active | Active |
